Test results published in US20240415819A1, “MACROCYCLIC COMPOUNDS AS PROTEASOME SUBUNIT BETA TYPE-5 INHIBITORS” (Lead Discovery Center GmbH, priority 2021, published 2024).

System: B-cells isolated from PBMC's
Assay: Chymotrypsin-like ProteasomeGlo assay in B-cells isolated from PBMCs
Type: cell-based, human
Details: Homo sapiens; B-cells isolated from PBMC's; read-out: Pglo B-Cell
How it was run: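 Human B-cells were negatively isolated from buffy-coat PBMCs by density gradient, RBC lysis and Miltenyi magnetic separation. Cells were plated and compounds added by acoustic transfer after 1:100 dilution, with DMSO controls and medium-only wells. Chymotrypsin-like proteasome activity was read by luminescent ProteasomeGlo to derive IC50.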

For `CCC(C(=O)N[C@H]1CC(=O)N2CCCC(CCOc3ccc(C)c(c3)CNC(=O)[C@H](CCc3ccccc3)NC1=O)C2)c1ccc(OC)c(OC)c1` (stereo partly drawn) [Compound 64, 2-(3,4-dimethoxyphenyl)-N-((9S,12S)-5^4-methyl-8,11,14-trioxo-9-phenethyl-4-oxa-7,10-diaza-1(3,1)-piperidina-5(1,3)-benzenacyclotetradecaphane-12-yl)butanamide], the IC50 was < 100 nM.
